Assay [1] relates to CD69+B220+ cells (mouse spleen cells). The assay is described as follows: B cell activation assay (IgD-stimulated CD69 on B220+ spleen cells, FACS). To be noted: 100 nM test compound, 30 min, then IgD 3 μg/mL 4 h, read-out: CD69 @ 100 nM (% Inh). The class given is cell-based. The method, then: 1 Female mouse approximately 2 months old was euthanized with CO2 and the spleen removed. The tissue was homogenized with a polished glass microscope slide. The cells were collected in 5 mL complete medium (RPMI+10% FBS+pen/strep), placed in a 15 mL falcon tube and centrifuged at 500×g for 5 min. The supernatant was discarded and the pellet was resuspended in 3 mL of ACK lysis buffer (NH4Cl 0.17M, KHCO3 10 mM, EDTA-Na2 0.1 mM, pH 7.2), incubated at 37° C. for 5 min. 2 mL complete medium was added and the mixture centrifuged at 500×g for 5 min. The supernatant was discarded and the pellet resuspended in 1 mL complete medium. The mixture was passed through a […] cell strainer and collect in 50 mL falcon tube. Enough medium was added to have a total of 10 mL. The cells were counted and seeded in 24 or 48-well plate in 1 mL complete medium at 10^6 cells/mL. The plate was placed in a 37° C. incubator for 15 min. The cells were treated for 30 min at 37° C. with 100 nM test compound dissolved in 100% DMSO. 3 μL IgD (Accurate chemical and scientific corp.) was added at a final concentration of 3 μg/mL and the mixture incubated at 37° C. for 4 h. The cells were collected in 1.5 mL eppendorf tubes, centrifuged at 500×g for 5 min and then resuspended in 100 μL of PBS+2% FBS. The following antibodies were added: α-B220 PE (pharmingen #553090), α-CD69 APC (pharmingen #60689), live/dead fixable aqua dead cell stain kit (life technologies # L34957) all at 1:300, and the mixture incubated for 15 min at 4° C. in the dark. To this was added 900 μL of PBS+2% FBS and the mixture centrifuged at 500×g for 5 min. The supernatant was removed and the pellet resuspended in 300 μL of PBS+2% FBS and mixed well. The mixture was transferred to a cytometer tube. The samples were run in the FACS Canto II cytometer and quantified by the number of CD69+B220+ cells as a percentage of the total number of B220+ alive cells.

In assay [2] the target is T1, PI3Kδ (Homo sapiens, UniProt O00329).
T1 construct: purchased Reaction Biology Corporation
T1 sequence (O00329 whole entry): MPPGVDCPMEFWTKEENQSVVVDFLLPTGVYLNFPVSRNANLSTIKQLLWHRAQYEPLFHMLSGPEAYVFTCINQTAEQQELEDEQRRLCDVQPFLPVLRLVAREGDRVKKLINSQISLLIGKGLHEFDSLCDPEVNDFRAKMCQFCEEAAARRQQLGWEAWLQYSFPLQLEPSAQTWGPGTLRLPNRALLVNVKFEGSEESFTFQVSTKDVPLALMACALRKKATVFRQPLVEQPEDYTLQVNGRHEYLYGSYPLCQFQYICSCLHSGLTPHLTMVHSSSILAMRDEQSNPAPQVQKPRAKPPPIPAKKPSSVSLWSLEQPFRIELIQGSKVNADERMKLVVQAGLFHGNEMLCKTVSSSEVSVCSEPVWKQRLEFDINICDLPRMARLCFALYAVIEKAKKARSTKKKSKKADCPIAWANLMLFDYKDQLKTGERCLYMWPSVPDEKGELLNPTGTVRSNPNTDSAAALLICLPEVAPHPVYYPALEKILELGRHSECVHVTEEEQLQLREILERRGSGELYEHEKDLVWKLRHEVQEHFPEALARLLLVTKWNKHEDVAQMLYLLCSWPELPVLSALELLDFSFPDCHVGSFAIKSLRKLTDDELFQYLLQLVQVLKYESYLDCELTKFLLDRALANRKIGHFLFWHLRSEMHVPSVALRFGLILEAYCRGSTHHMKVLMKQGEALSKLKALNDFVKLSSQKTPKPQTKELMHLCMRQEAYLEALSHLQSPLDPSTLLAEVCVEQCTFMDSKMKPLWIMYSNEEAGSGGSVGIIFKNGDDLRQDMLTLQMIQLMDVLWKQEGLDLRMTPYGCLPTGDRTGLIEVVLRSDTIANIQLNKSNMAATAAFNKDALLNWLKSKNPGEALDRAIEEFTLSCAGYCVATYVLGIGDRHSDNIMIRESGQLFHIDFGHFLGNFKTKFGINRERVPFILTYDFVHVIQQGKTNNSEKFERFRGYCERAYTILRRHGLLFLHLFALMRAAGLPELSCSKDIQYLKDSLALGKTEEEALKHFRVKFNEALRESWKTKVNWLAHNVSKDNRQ
T1 sequence (P27986 whole entry partner): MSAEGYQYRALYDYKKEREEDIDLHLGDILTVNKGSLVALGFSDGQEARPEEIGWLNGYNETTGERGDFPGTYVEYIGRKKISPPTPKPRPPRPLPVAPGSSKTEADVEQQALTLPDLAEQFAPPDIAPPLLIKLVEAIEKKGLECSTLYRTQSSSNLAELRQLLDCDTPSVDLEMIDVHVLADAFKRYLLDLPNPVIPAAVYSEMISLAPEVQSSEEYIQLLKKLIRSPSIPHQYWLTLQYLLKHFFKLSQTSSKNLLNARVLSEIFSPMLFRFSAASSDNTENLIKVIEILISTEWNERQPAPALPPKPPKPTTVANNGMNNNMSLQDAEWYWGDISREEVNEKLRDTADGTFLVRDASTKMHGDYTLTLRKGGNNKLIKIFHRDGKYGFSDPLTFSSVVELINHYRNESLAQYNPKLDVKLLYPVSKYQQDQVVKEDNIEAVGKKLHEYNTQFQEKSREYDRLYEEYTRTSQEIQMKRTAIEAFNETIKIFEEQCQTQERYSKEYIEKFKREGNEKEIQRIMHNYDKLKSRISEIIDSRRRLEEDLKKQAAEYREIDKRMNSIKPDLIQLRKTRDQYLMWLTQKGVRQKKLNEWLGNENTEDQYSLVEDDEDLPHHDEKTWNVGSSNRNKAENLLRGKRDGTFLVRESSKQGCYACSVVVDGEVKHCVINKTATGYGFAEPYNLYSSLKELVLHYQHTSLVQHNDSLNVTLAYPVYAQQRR
The experiment in a line: PI3Kδ kinase profiling, HTRF PIP3 displacement assay (Reaction Biology). The assay is classed as biochemical. The note with it: ATP 10 μM; for inhibition at 0.01 µM: compound 0.01 μM, read-out: PI3Kδ @ 0.01 μM (% Inh); for inhibition at 0.1 µM: compound 0.1 μM, read-out: PI3Kδ @ 0.1 μM (% Inh). A general note: In TR-FRET formats the signal depends on donor and acceptor labels being close together.

The target in assay [3] is T2, BTK (Homo sapiens, UniProt Q06187).
T2 construct: purchased Reaction Biology Corporation
T2 sequence (Q06187 whole entry): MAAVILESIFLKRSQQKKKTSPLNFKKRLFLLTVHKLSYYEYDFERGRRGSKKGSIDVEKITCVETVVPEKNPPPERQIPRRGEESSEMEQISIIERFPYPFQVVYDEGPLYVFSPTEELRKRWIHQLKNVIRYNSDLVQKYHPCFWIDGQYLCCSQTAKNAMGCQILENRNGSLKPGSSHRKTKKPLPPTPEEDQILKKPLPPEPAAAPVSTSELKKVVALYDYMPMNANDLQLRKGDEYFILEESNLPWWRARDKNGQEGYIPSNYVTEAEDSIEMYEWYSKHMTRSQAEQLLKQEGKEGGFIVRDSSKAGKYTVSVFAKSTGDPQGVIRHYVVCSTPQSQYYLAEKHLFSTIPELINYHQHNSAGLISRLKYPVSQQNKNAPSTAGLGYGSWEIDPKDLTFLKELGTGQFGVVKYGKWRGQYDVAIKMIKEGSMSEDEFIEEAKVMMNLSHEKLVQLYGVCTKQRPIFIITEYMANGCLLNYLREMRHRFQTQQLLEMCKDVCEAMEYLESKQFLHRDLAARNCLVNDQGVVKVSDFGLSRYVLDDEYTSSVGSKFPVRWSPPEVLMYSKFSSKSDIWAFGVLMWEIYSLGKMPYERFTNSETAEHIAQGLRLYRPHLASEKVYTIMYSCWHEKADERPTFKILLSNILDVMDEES
The assay is described as follows: BTK kinase profiling, HotSpot radiometric assay (Reaction Biology). The assay is classed as biochemical. The note with it: ATP 10 μM; for inhibition at 0.01 µM: compound 0.01 μM, read-out: BTK @ 0.01 μM (% Inh); for inhibition at 0.1 µM: compound 0.1 μM, read-out: BTK @ 0.1 μM (% Inh); for inhibition at 1 µM: compound 1 μM, read-out: BTK @ 1 μM (% Inh). The method, then: (§1) Compounds of the invention were profiled in a 10 dose IC50 panel against BTK and PI3Kδ, both provided by Reaction Biology Corporation.
BTK assay: In vitro profiling protein kinases was performed using the “HotSpot” assay platform. Briefly, specific kinase/substrate pairs along with required cofactors were prepared in reaction buffer. Compounds were prepared as 10 mM stock solutions in DMSO. Compounds were delivered into the reaction, followed 15-20 minutes later by addition of a mixture of ATP (Sigma, St. Louis Mo.) and ^33P ATP (Perkin Elmer, Waltham Mass.) to a final concentration of 10 μM. Reactions were carried out at RT for 120 min, followed by spotting of the reactions onto P81 ion exchange filter paper (Whatman Inc., Piscataway, N.J.). Unbound phosphate was removed by extensive washing of filters in 0.75% Phosphoric acid. […] ICso values and curve fits were obtained using Prism (GraphPad Software). Buffer Conditions: 20 mM Hepes (pH 7.5), 10 mM MgCl2, 1 mM EGTA, 0.02% Brij35, 0.02 mg/mL BSA, 0.1 mM Na3VO4, 2 mM DTT, 1% DMSO.

In assay [4] the target is T1, PI3Kδ. The experiment in a line: PI3Kδ kinase profiling, HTRF PIP3 displacement assay (Reaction Biology). The class given is biochemical. To be noted: compound 1 μM; ATP 10 μM; read-out: PI3Kδ @ 1 μM (% Inh).
Excerpt: as §1
PI3Kδ assay: The PIP3 product is detected by displacement of biotin-PIP3 from an energy transfer complex consisting of Europium labeled anti-GST monoclonal antibody, a GST-tagged pleckstrin homology (PH) domain, biotinylated PIP3 and Streptavidin-Allophycocyanin (APC). Excitation of Europium in the complex results in an energy transfer to the APC and a fluorescent emission at 665 nm. The PIP3 product formed by PI3-Kinase (h) activity displaces biotin-PIP3 from the complex resulting in a loss of energy transfer and thus a decrease in signal. This is a 3-step reaction: First, the kinase reaction with PIP2 substrate is carried out in the presence of ATP (10 μM), and the reaction is quenched with stop Solution, and then finally detect by adding Detection Mixture followed by incubation (10 min). Reaction procedure: 1) Prepare substrate in freshly prepared Reaction Buffer. 2) Deliver kinase into the substrate solution and gently mix. 3) Deliver compounds in 100% DMSO (1 μM) into the kinase reaction mixture by Acoustic technology (Echo550; nanoliter range), incubate for 10 min at RT. 4) Deliver ATP into the reaction mixture to initiate the reaction. 5) Incubate for 30 min at 30° C. 6) Quench the reaction with Stop Solution. 7) Add Detection Mixture, and incubate for overnight. 8) Measure HTRF: Ex=320 nm, ratio of Em=615 nm and Em=665 nm. The emission ratio is converted into μM PIP3 production based on PIP3 standard curves. The nonlinear regression to obtain the standard curve and IC50 values are performed using Graphpad Prism software. Assay Buffer: HEPES 50 mM (pH7.0), NaN3 0.02%, BSA 0.01%, Orthovanadate 0.1 mM, 1% DMSO. Detection buffer: HEPES 10 mM (pH7.0), BSA 0.02%, KF 0.16 M, EDTA 4 mM. Substrate: 10 μM PIP2 substrate (PI(4,5)P2).

Twelve compounds from US20160272645A1, “Heterocyclic Compounds and Methods of Use” (MEDIVATION TECHNOLOGIES, INC., priority 2013, published 2016) can be followed below.

The structures appear in SMILES notation.

As to `Nc1ncnc2c1c(-c1cc(O)cc(F)c1)nn2CCNCc1ccccc1` [Compound 4, 3-{4-amino-1-[2-(benzylamino)ethyl]-1H-pyrazolo[3,4-d]pyrimidin-3-yl}-5-fluorophenol], the figures for the inhibition at 0.1 µM in assay [1], in assay [2] and in assay [3] were 39.1 ± 7.85%, 68% and 14.8%, respectively. In addition, the inhibition at 0.01 µM in assay [2] is 1.78%; in assay [3], -1.37%.
With `C=CC(=O)N(CCn1nc(-c2ccc(Oc3ccccc3)cc2)c2c(N)ncnc21)Cc1ccccc1` [Compound 24, N-{2-[4-amino-3-(4-phenoxyphenyl)-1H-pyrazolo[3,4-d]pyrimidin-1-yl]ethyl}-N-benzylprop-2-enamide], the inhibition at 0.1 µM in assay [1] stood at 55.8 ± 9.1%; in assay [2], 0.74%; in assay [3] it was 96.7%. The figures for the inhibition at 0.01 µM in assay [2] and in assay [3] were -32.3% and 96.5%, respectively.
For the compound `C=CC(=O)N(CCn1nc(-c2cc(F)c3c(c2)NCCO3)c2c(N)ncnc21)Cc1ccc(Cl)cc1` [Compound 18, N-{2-[4-amino-3-(8-fluoro-3,4-dihydro-2H-1,4-benzoxazin-6-yl)-1H-pyrazolo [3,4-d]pyrimidin-1-yl]ethyl}-N-[(4-chlorophenyl)methyl]prop-2-enamide], the inhibition at 0.1 µM is -7.39 ± 6.26% in assay [1], 23.4% in assay [2] and 93.1% in assay [3]. The results for the inhibition at 0.01 µM in assay [2] and in assay [3] were 20.8% and 62.5%, respectively.
For `C=CC(=O)N(CCn1cc(-c2ccc(Cl)c(O)c2)c2c(N)ncnc21)Cc1ccc(F)cc1` [Compound 13, N-{2-[4-amino-5-(4-chloro-3-hydroxyphenyl)-7H-pyrrolo[2,3-d]pyrimidin-7-yl]ethyl}-N-[(4-fluorophenyl)methyl]prop-2-enamide] the same measures were -165 ± 63%, 43%, 98.6%, 14% and 95.6%.
For `Nc1ncnc2c1c(-c1cc(O)c(F)c(F)c1)nn2CCNc1ncccn1` [Compound 21, 5-(4-amino-1-{2-[(pyrimidin-2-yl)amino]ethyl}-1H-pyrazolo[3,4-d]pyrimidin-3-yl)-2,3-difluorophenol], in that order: 18.2 ± 2.92%, 56.6%, 37.1%, 8.59% and 9.64%.
For the compound `Nc1ncnc2c1c(-c1cc(O)c(F)c(F)c1)nn2CCNCc1cccnc1` [Compound 23, 5-(4-amino-1-{2-[(pyridin-3-ylmethyl)amino]ethyl}-1H-pyrazolo[3,4-d]pyrimidin-3-yl)-2,3-difluorophenol], the values for the inhibition at 0.1 µM in assay [1], in assay [2] and in assay [3] were 39.7 ± 10.2%, 66.7% and 60.5%, respectively. Further, the inhibition at 0.01 µM in assay [2] was 3.31%; in assay [3] it was 12.7%.
Turning to `C=CC(=O)N(CCn1nc(-c2cc(F)cc(OC(C)=O)c2)c2c(N)ncnc21)Cc1ccccc1` [Compound 9, 3-{4-amino-1-[2-(N-benzylprop-2-enamido)ethyl]-1H-pyrazolo [3,4-d]pyrimidin-3-yl}-5-fluorophenyl acetate], the results for the inhibition at 1 µM in assay [4] and in assay [3] were 85.2% and 91.6%, respectively. In addition, the inhibition at 0.1 µM in assay [2] worked out at 47%; in assay [3], 47.3%.
`C=CC(=O)N(CCn1nc(-c2ccc(Cl)c(O)c2)c2c(N)ncnc21)Cc1ccc(Cl)cc1` [Compound 15, N-{2-[4-amino-3-(4-chloro-3-hydroxyphenyl)-1H-pyrazolo[3,4-d]pyrimidin-1-yl]ethyl}-N-[(4-chlorophenyl)methyl]prop-2-enamide]: the inhibition at 0.1 µM in assay [1] is -103 ± 45.4%; in assay [2] it was 31.1%; in assay [3], 92.1%. The inhibition at 0.01 µM came to 7.57% in assay [2] and 48.5% in assay [3].
For `C=CC(=O)N(CCn1nc(-c2ccc(Cl)c(O)c2)c2c(N)ncnc21)Cc1ccc(OC)cc1` [Compound 17, N-{2-[4-amino-3-(4-chloro-3-hydroxyphenyl)-1H-pyrazolo[3,4-d]pyrimidin-1-yl]ethyl}-N-[(4-methoxyphenyl)methyl]prop-2-enamide], in that order: -61.1 ± 47.1%, 41.1%, 96.2%, 13.6% and 90.3%.
For `C=CC(=O)N(CCn1nc(-c2ccc(Cl)c(O)c2)c2c(N)ncnc21)Cc1ccco1` [Compound 20, N-{2-[4-amino-3-(4-chloro-3-hydroxyphenyl)-1H-pyrazolo[3,4-d]pyrimidin-1-yl]ethyl}-N-(furan-2-ylmethyl)prop-2-enamide], in that order: -82 ± 14.7%, 40.6%, 95.4%, 17.1% and 90.3%.
As to `C=CC(=O)N(CCn1nc(-c2ccc(Cl)c(O)c2)c2c(N)ncnc21)Cc1ccc(F)cc1` [Compound 14, N-{2-[4-amino-3-(4-chloro-3-hydroxyphenyl)-1H-pyrazolo[3,4-d]pyrimidin-1-yl]ethyl}-N-[(4-fluorophenyl)methyl]prop-2-enamide], the inhibition at 0.1 µM is -135 ± 55.8% in assay [1], 55% in assay [2] and 96.1% in assay [3]. In addition, the inhibition at 0.01 µM was 24.8% in assay [2] and 86.5% in assay [3].
Consider `Nc1ncnc2c1c(-c1cc(O)cc(F)c1)nn2CCN(Cc1ccccc1)C(=O)C1CC1` [Compound 8, N-{2-[4-amino-3-(3-fluoro-5-hydroxyphenyl)-1H-pyrazolo[3,4-d]pyrimidin-1-yl]ethyl}-N-benzylcyclopropanecarboxamide], for which the values for the inhibition at 1 µM in assay [4] and in assay [3] were 86.1% and 12.2%, respectively. Further, the inhibition at 0.1 µM in assay [2] was found to be 70%; in assay [3] it was 9.54%.
